Measured values reported in patent US5521315A, “Olefin substituted long chain compounds” (priority 1993, dated 1996).
Read-outs that look alike come from different tables or passages of the source.

Experiments:
PUMP-1 = PUMP-1 activity induced by 100 U/ml of IL-1; assay type: cell-based; details: IL-1 100 U/ml
Description: Metalloproteases mediate tissue damage such as glomerular diseases of the kidney, joint destruction in arthritis, and lung destruction in emphysema, and play a role in tumor metastases. Three examples of metalloproteases include a 92 kD type V gelatinase induced by TNF, IL-1 and PDGF plus βFGF, a 72 kD type IV collagenase that is usually constitutive and induced by TNF or IL-1, and a stromelysin/PUMP-1 induced by TNF and IL-1. The inventive compounds can inhibit TNF or IL-1 induction of the 92 kD type V gelatinase inducable metalloprotease. Moreover, the inventive compounds can reduce PUMP-1 activity induced by 100 U/ml of IL-1. […] Accordingly, the inventive compounds prevent induction of certain metalloproteases induced by IL-1 or TNF and are not involved with constitutively produced proteases (e.g., 72 kD type IV collagenase) involved in normal tissue remodeling.

[1] = tested on: ras-transformed NIH/3T3 cells
[2] = tested on: polymorphonuclear leukocytes; details: in response to a stimulator of chemotaxis; cited from earlier work
[3] = tested on: generation of DAG and PA in ras-transformed NIH/3T3 cells; test: Serum-stimulated generation of DAG and PA in ras-transformed NIH/3T3 cells; assay type: cell-based; details: pretreatment of cells
Description: For example, activating ras mutations result in increased generation of DAG on stimulation with mitogens, although the sources of DAG have differed between experimental systems. In nontransformed renal mesangial cells, IL-1 β stimulation increased PLA2 and LPAAT activation, resulting in generation of sn-2 unsaturated PA and subsequent hydrolysis to DAG by phosphatidate phosphohydrolase. The ras transformation in NIH/3T3 cells upregulates serum-stimulated generation of DAG and PA. The specific species of DAG that is stimulated by serum is dioleoyl and for PA are dilinoleoyl and dioleoyl. […] The inhibition occurs either through suppressing the generation of PA de novo from lysoPA, or through inhibition of one or both arms of the Lands cycle. […] Therefore, the ras transformation mediates an upregulation of PA through indirect stimulation of PLA2 and/or LPAAT activity.

[4] = tested on: tumor necrosis factor (TNF); details: cited from earlier work
LPAAT = test: Formation of remodeled PA through the PA/DAG pathway (in vitro); assay type: cell-based; details: high PTX concentrations
Description: Even in the presence of PTX, cells continue to form PA through the action of PLD, and DAG is also formed through the action of phospholipase C on PC and PI. The latter pathway is not inhibited by the inventive compounds or PTX. In PTX-treated cells, DAG derived from remodeled and PLA-generated PA is diminished (e.g., 1,2-sn-dioleoyl DAG, 1-alkyl,2-linoleoyl DAG and 1-alkyl,2-docosahexaneolyl DAG). Therefore, the inventive compounds and PTX inhibit the formation of only a certain species of PA and DAG by selectively inhibiting a specific second messenger pathway that is only activated in cells by noxious stimuli, but is not used to signal normal cellular housekeeping functions.

human stromal cells = test: PDGF-stimulated proliferation of human stromal cells; assay type: cell-based; details: Homo sapiens, 1 h; 50 ng/ml PDGF-BB; drug one hour prior; FIGS. 15 and 16; read-out: IC50, stromal cell proliferation
Procedure: (§1) This assay is an in vitro model for restenosis and treatment of atherosclerosis and coronary artery disease. Stromal cells were starved in serum-free media for one day and then stimulated with 50 ng/ml PDGF-BB. The drugs were added at the indicated concentrations one hour prior to PDGF stimulation. Tritiated thymidine was added for one day at the time of PDGF stimulation and the cells were harvested and counted by liquid scintillation counting 24 hrs later.
Another assay for measuring activity of the inventive compounds involves determining PDGF (platelet derived growth factor) proliferative response using human-derived stromal cells. […] Two to three days later, the stromal cells are starved in serum-free media. Twenty four hours later, the cells are treated with a stimulating agent, such as PDGF-AA, PDGF-BB or basic FGF (fibroblast growth factor) with or without IL-1α or TNF, and tritiated thymidine. Cell proliferation is determined by liquid scintillation counting.
as §1

[5] = tested on: LPS-mediated release of TNF from monocytes in whole blood; test: Ex vivo human TNF model (LPS-stimulated whole blood); assay type: cell-based; details: lower doses, FIG. 19
Description: FIG. 19 illustrates a comparative experiment comparing CT1508, CT1524, CT1534 and CT2501 in an ex vivo human TNF model described herein. This assay is a predictive model for treatment and prevention of septic shock and sepsis syndrome. This model adds LPS to whole blood (normal human volunteers) to trigger a dose-dependent synthesis and extracellular release of TNF according to Desch et al. (Lymphokine Res. 8:141, 1989). The ex vivo model examines whether LPS-mediated release of TNF from monocytes in whole blood can be blocked by an inventive compound.
This example illustrates a comparative experiment comparing CT1508, CT1524, CT1534 and CT2501 in an ex vivo human TNF model described herein. This assay is a predictive model for treatment and prevention of septic shock and sepsis syndrome. This model adds LPS to whole blood (normal human volunteers) to trigger a dose-dependent synthesis and extracellular release of TNF according to Desch et al. (Lymphokine Res. 8:141, 1989). The ex vivo model examines whether LPS-mediated release of TNF from monocytes in whole blood can be blocked by an inventive compound.

mast cell degranulation = test: Serotonin release assay (inhibition of mast cell degranulation); assay type: cell-based; details: 50 μM
How it was run: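 Cultured mast cells loaded with 3H-serotonin and sensitized with anti-DNP IgE for 18 h at 37 °C, then triggered with 40 ng/ml DNP-BSA for 45 min with compound in PIPES isotonic buffer pH 7.1.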

[6] = tested on: CMV promoter activity in transformed (adenovirus) cells; test: CMV promoter assay (gene transcription and translation; cytotoxicity in transformed cells); assay type: cell-based
How it was run: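 Reporter assay in adenovirus-transformed cells, reading CMV promoter-driven gene transcription and translation; activity reflects cytotoxic inhibition of cellular protein synthesis machinery.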

cerebral blood flow = details: in vivo; cited from earlier work

Compound | PUMP-1 activity, % of control levels (PUMP-1) | cytotoxicity in ras-transformed cells [1] | inhibition of ras-transformed cells ([1]; vs parental cells) | chemotaxis stimulation [2] | inhibition of DAG/PA generation [3] | TNF levels ([4]; normal volunteers) | TNF levels ([4]; with GM-CSF, patients undergoing allogeneic bone marrow transplant) | inhibition of formation of remodeled PA (LPAAT) | IC50 (human stromal cells) | inhibition of LPS-mediated TNF release [5] | activity in serotonin release assay (mast cell degranulation) | RELEASE-SPONT (mast cell degranulation; Table 4, average corrected for spontaneous release) | AVERAGE % RELEASE (mast cell degranulation; Table 4, average of duplicates) | inhibition at 50 µM (mast cell degranulation; Mast cell, Table 4) | IC50 [6] | cerebral blood flow (cerebral blood flow)
CC(=O)CCCCn1c(=O)c2c(ncn2C)n(C)c1=O [PTX, 1-(5-oxohexyl)-3,7-dimethylxanthine] | 95% | not associated with significant cytotoxicity | inhibits ras-transformed NIH/3T3 cells more than parental cells | stimulate chemotaxis in polymorphonuclear leukocytes | blocks generation of these phospholipid second messengers | TNF levels were higher among PTX recipients | decrease tumor necrosis factor (TNF) levels | blocks formation of remodeled PA through the PA/DAG pathway at high PTX concentrations |  |  |  |  |  |  |  | 
CC/C=C\CCCCCn1c(=O)c2c(ncn2C)n(C)c1=O [CT1508, 1-(6-cis-nonenyl)-3,7-dimethylxanthine] |  |  |  |  |  |  |  |  | < 2 µM | the most effective agent | increases the activity | 3.38% | 19.94% | 57.9% | 75 µM | 
CC(O)CCCCn1c(=O)c2c(ncn2C)n(C)c1=O (centres unmarked) [M1, 1-(5-hydroxyhexyl)-3,7-dimethylxanthine] |  |  |  | stimulate chemotaxis in polymorphonuclear leukocytes |  |  |  |  |  |  |  |  |  |  |  | increasing cerebral blood flow
